From ChEMBL document CHEMBL4138061, “Structure-activity relationships for the synthesis of selective cyclooxygenase 2 inhibitors: an overview (2009-2016)” (Medchemcomm, 2017)

Key:
[1] = Selectivity index, ratio of IC50 for ovine COX1 to IC50 for human COX2
[2] = target: T1, Prostaglandin G/H synthase 1 (Ovis aries, UniProt P05979); assay: Inhibition of ovine recombinant COX1 by enzyme immuno assay
T1 sequence (P05979 whole entry): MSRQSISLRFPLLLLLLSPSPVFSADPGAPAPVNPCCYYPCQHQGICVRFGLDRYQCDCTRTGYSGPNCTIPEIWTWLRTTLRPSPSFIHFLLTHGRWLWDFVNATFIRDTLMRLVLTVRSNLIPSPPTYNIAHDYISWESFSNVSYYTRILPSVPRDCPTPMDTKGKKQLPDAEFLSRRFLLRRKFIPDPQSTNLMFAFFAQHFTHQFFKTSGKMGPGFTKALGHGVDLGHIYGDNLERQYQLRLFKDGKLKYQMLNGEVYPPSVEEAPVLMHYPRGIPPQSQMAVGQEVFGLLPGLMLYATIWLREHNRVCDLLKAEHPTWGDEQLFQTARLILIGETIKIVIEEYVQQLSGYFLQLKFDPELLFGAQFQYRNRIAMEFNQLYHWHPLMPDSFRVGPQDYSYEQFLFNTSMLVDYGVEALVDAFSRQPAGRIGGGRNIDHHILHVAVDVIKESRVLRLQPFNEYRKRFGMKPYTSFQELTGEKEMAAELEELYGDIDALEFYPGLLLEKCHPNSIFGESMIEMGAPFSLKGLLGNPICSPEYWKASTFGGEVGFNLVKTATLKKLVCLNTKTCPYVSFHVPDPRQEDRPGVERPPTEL

[3] = target: T2, Prostaglandin G/H synthase 2 (Homo sapiens, UniProt P35354); assay: Inhibition of human recombinant COX2 by enzyme immuno assay
T2 sequence (P35354 whole entry): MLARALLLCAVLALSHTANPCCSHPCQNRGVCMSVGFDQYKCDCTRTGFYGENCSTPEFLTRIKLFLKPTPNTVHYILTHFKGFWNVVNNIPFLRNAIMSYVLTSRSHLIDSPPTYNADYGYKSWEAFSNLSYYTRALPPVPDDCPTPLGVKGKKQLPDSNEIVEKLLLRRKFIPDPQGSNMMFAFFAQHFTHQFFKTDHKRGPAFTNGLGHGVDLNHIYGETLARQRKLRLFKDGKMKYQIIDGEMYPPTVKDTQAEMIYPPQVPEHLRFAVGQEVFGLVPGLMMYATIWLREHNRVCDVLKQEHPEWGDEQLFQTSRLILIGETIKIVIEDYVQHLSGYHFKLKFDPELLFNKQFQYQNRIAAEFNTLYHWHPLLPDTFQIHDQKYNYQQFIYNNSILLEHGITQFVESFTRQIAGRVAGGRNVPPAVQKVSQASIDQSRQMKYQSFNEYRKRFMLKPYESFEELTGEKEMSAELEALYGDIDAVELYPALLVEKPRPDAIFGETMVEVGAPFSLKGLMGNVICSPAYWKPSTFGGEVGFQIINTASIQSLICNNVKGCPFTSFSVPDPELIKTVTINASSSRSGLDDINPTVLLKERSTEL

[4] = target: T2, Prostaglandin G/H synthase 2; assay: Inhibition of human recombinant COX2 assessed as reduction in […] production incubated for 10 mins using arachidonic acid substrate by enzyme immuno assay
[5] = target: T3, Prostaglandin G/H synthase 2 (Ovis aries, UniProt P79208); assay: Inhibition of ovine COX2 by enzyme chemiluminescence assay
T3 sequence (P79208 whole entry): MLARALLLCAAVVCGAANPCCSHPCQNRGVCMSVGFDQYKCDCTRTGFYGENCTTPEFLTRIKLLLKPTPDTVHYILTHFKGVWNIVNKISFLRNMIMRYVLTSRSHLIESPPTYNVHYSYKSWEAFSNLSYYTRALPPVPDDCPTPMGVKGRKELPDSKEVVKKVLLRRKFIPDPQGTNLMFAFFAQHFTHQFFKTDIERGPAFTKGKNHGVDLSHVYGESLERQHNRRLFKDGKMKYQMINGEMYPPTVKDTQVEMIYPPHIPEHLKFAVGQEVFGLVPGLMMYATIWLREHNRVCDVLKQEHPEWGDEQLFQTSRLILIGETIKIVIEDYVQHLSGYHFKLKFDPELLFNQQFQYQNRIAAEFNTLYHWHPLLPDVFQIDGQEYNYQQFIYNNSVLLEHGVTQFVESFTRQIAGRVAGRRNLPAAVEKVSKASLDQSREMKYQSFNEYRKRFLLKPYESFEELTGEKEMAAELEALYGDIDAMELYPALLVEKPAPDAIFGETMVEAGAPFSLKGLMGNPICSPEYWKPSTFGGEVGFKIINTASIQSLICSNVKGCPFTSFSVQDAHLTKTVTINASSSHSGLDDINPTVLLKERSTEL

[6] = species: Ovis aries; assay: Selectivity index, ratio of IC50 for ovine COX1 to IC50 for ovine COX2
[7] = target: T1, Prostaglandin G/H synthase 1; assay: Inhibition of ovine COX1 by enzyme chemiluminescence assay
[8] = target: T2, Prostaglandin G/H synthase 2; assay: Inhibition of COX2 (unknown origin)
[9] = species: Homo sapiens; assay: Selectivity index, ratio of IC50 for COX1 (unknown origin) to IC50 for COX2 (unknown origin)
[10] = target: T4, Prostaglandin G/H synthase 1 (Homo sapiens, UniProt P23219); assay: Inhibition of COX1 (unknown origin)
T4 sequence (P23219 whole entry): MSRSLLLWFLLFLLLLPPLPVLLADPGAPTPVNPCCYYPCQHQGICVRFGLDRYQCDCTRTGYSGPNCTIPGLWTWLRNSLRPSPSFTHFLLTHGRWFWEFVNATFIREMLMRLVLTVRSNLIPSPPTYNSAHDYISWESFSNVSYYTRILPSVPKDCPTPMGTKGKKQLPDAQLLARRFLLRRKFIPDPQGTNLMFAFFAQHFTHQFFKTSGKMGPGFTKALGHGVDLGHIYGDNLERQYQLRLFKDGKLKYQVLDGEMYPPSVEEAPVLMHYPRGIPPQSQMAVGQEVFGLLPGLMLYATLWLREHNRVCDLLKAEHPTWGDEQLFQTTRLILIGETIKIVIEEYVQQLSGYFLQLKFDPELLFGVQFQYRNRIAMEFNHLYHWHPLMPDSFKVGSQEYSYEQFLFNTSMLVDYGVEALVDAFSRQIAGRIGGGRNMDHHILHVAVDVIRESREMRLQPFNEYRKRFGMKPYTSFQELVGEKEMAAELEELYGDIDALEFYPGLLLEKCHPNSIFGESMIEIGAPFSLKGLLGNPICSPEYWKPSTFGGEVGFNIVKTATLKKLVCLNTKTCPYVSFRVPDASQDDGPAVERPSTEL

[11] = target: T1, Prostaglandin G/H synthase 1; assay: Inhibition of ovine COX1 using arachidonic acid substrate by TMPD dye based colorimetry
[12] = target: T5, Prostaglandin G/H synthase 1 (Ovis aries) (UniProt P05979); assay: Inhibition of ovine COX1 at 10 ug/ml using arachidonic acid substrate by TMPD dye based colorimetry
T5 sequence (whole entry): T1 sequence (P05979 whole entry)

[13] = target: T6, Prostaglandin G/H synthase 2 (Ovis aries) (UniProt P79208); details: 10 ug/ml
T6 sequence (whole entry): T3 sequence (P79208 whole entry)
Description: Inhibition of ovine COX2 at 10 ug/ml using arachidonic acid substrate by TMPD dye based colorimetry

[14] = target: T2, Prostaglandin G/H synthase 2; assay: Inhibition of human COX2 assessed as reduction in PGE2 production incubated for 2 mins using arachidonic acid substrate by enzyme immuno assay
[15] = target: T4, Prostaglandin G/H synthase 1; assay: Inhibition of human COX1 assessed as reduction in PGE2 production incubated for 2 mins using arachidonic acid substrate by enzyme immuno assay
[16] = species: Homo sapiens; assay: Selectivity index, ratio of IC50 for human COX1 to IC50 for human COX2
[17] = target: T2, Prostaglandin G/H synthase 2; assay: Inhibition of COX2 in human lympho-monocytes suspension assessed as reduction in LPS-induced PGE2 production pre-incubated for 30 mins before LPS stimulation for 24 hrs by EIA method; assay type: cell-based
[18] = target: T1, Prostaglandin G/H synthase 1; assay: Inhibition of ovine COX1 by fluorescence based assay
[19] = target: T2, Prostaglandin G/H synthase 2; assay: Inhibition of human COX2 by fluorescence based assay

CCOc1ccc(-c2cc(-c3ccc(C(F)(F)F)cc3)n(-c3ccc(S(C)(=O)=O)cc3)n2)cc1 gave a Ratio IC50 [1] of 5.77, an IC50 [2] of 5.6 µM and an IC50 [3] of 970 nM.

Compound CS(=O)(=O)c1ccc(C2NN=C(c3ccc([N+](=O)[O-])cc3)O2)cc1 (stereo not given) has a Ratio IC50 [1] of 133 and an IC50 [4] of 480 nM.

Compound CS(=O)(=O)c1ccc(-c2cc(Cn3ccnc3)c3ccc4c(c3n2)CCCC4)cc1 has an IC50 [5] of 63 nM, a Ratio IC50 [6] of 548 and an IC50 [7] of 34.5 µM.

For CS(=O)(=O)c1ccc(C2C(c3ccccc3)=NOC23COc2ccccc2C3=O)cc1 (stereo not given), the IC50 [8] was 90 nM, the Ratio IC50 [9] was 116 and the IC50 [10] was 10.5 µM.

Cc1cc(C)c2c(n1)nn1c(/C=C/c3ccc([N+](=O)[O-])cc3)c(C)[nH]c21 gave an IC50 [11] of 63.8 µM, an inhibition [12] of 3.92% and a Ratio IC50 [6] of 133. It also gave an inhibition [13] of 76%.

CS(=O)(=O)c1ccc(-n2nc(-c3ccc(O)cc3)cc2-c2ccc(C(F)(F)F)cc2)cc1 showed a Ratio IC50 [1] of 6.08 and an IC50 [3] of 970 nM.

NS(=O)(=O)c1ccc(N2N=C(c3ccc(N4CCOCC4)cc3)CC2c2ccc(F)cc2F)cc1 (stereo not given) showed an IC50 [14] of 80 nM, an IC50 [15] of 36.1 µM and a Ratio IC50 [16] of 451.

Work on Cc1ccc(Nc2c(F)cccc2Cl)c(Cc2nnn[nH]2)c1 yielded an IC50 [17] of 14 nM.

For Cc1ccc(-c2nn(Cc3nnc(-c4ccccc4[N+](=O)[O-])o3)c(=O)c3ccccc23)cc1C, the IC50 [11] was > 50 µM.

With Cc1ccc(-c2c(-c3ccc(S(C)(=O)=O)cc3)c3cccc4ccn2c43)cc1 the Ratio IC50 [1] was > 5000, the IC50 [18] was > 100 µM and the IC50 [19] was 20 nM.
